Experimental findings from patent US12281102B2, “Inhibitors of APOL1 and methods of using same” (Vertex Pharmaceuticals Incorporated, priority 2020, dated 2025) are described below.

Structures are written as SMILES.

One assay addresses T1, G1 APOL1 (Homo sapiens, UniProt O14791, I384M/S342G).
T1 construct: expressed in transfected cells
T1 sequence (O14791 28-398 S342G/I384M): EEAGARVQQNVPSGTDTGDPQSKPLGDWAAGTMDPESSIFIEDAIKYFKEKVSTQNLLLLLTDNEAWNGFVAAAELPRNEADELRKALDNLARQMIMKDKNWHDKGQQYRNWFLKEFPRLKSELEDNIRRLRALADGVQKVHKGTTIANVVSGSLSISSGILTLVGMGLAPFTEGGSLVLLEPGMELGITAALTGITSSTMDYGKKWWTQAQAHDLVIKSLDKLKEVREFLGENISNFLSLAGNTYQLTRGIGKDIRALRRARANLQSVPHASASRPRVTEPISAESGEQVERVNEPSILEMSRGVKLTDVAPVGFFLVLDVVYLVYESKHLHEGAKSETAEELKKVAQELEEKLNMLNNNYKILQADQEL
Briefly: Acute APOL1 Thallium Assay with inducible stable clones of HEK 293 cells. It is filed as cell-based. The settings on record: HEK 293 T-Rex inducible stable clone expressing G1 APOL1; read-out: Thallium Assay (IC50). In a few lines: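 APOL1 pore function was measured as thallium influx, detected by a Tl+-sensitive fluorescent dye loaded as AM ester, on a FLIPR Tetra after Tl+ addition. Cells were HEK T-Rex G1 APOL1 clone DC3.25, 26,000 per well, induced with tetracycline at plating in Opti-MEM assay medium.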
For `O=C1NC(=O)C(CCS(=O)(=O)N[C@H]2C[C@H](c3c(-c4ccc(F)cc4)[nH]c4c(F)cc(F)cc43)C2)N1` (some centres unmarked) [Compound 151], the IC50 – broadly, the concentration needed to halve the response being measured – is 250 to 1000 nM.

Consider `CCC(C)S(=O)(=O)N[C@H]1C[C@H](c2c(-c3ccc(F)cc3)[nH]c3c(F)cc(F)cc32)C1` (some centres unmarked) [Compound 152], for which the half-inhibitory concentration (IC50) is over 1000 nM.

As to `O=c1[nH]c2ccc(S(=O)(=O)N[C@H]3C[C@H](c4c(-c5ccc(F)cc5)[nH]c5c(F)cc(F)cc54)C3)cc2[nH]1` [Compound 153], the IC50 was over 1000 nM.

In the case of `O=S(=O)(N[C@H]1C[C@H](c2c(-c3ccc(F)cc3)[nH]c3c(F)cc(F)cc32)C1)c1n[nH]c2ncccc12` [Compound 154], the IC50 was over 1000 nM.

Consider `O=c1ccc2cc(S(=O)(=O)N[C@H]3C[C@H](c4c(-c5ccc(F)cc5)[nH]c5c(F)cc(F)cc54)C3)ccc2[nH]1` [Compound 155], for which the IC50 is over 1000 nM.

As to `O=S(=O)(N[C@H]1C[C@H](c2c(-c3ccc(F)cc3)[nH]c3c(F)cc(F)cc32)C1)C1CCOCC1` [Compound 156], the IC50 is over 1000 nM.

With `N[C@H]1C[C@H](Cc2c(-c3ccc(F)cc3)[nH]c3c(F)cc(F)cc23)C1` [Compound 157, trans-3-[[5,7-difluoro-2-(4-fluorophenyl)-1H-indol-3-yl]methyl]cyclobutanamine], the IC50 is under 250 nM.

On to `N[C@H]1C[C@@H](Cc2c(-c3ccc(F)cc3)[nH]c3c(F)cc(F)cc23)C1` [Compound 158, cis-3-[[5,7-difluoro-2-(4-fluorophenyl)-1H-indol-3-yl]methyl]cyclobutanamine], for which the half-maximal inhibitory concentration (IC50) is under 250 nM.

On to `O=C(N[C@H]1C[C@H](Cc2c(-c3ccc(F)cc3)[nH]c3c(F)cc(F)cc23)C1)C1(CO)CC1` [Compound 159, N-[3-[[5,7-difluoro-2-(4-fluorophenyl)-1H-indol-3-yl]methyl]cyclobutyl]-1-(hydroxymethyl)cyclopropanecarboxamide], for which the IC50 was over 1000 nM.

On to `CC(C)(O)CC(=O)NC1CC(Cc2c(-c3ccc(F)cc3)[nH]c3c(F)cc(F)cc23)C1` (centres unmarked) [Compound 160, N-[3-[[5,7-difluoro-2-(4-fluorophenyl)-1H-indol-3-yl]methyl]cyclobutyl]-3-hydroxy-3-methylbutanamide], for which the IC50 was in the range of 250 to 1000 nM.

Take `C[C@H](O)C(=O)NC1CC(Cc2c(-c3ccc(F)cc3)[nH]c3c(F)cc(F)cc23)C1` (some centres unmarked) [Compound 161]: the IC50 lay within 250 to 1000 nM.

Take `Cc1nc[nH]c1C(=O)NC1CC(Cc2c(-c3ccc(F)cc3)[nH]c3c(F)cc(F)cc23)C1` (centres unmarked) [Compound 162]: the IC50 was 250 to 1000 nM.

`O=C1NCCC1C(=O)NC1CC(Cc2c(-c3ccc(F)cc3)[nH]c3c(F)cc(F)cc23)C1` (centres unmarked) [Compound 163]: the IC50 was over 1000 nM.

For `O=C1CC(CC(=O)NC2CC(Cc3c(-c4ccc(F)cc4)[nH]c4c(F)cc(F)cc34)C2)C(=O)N1` (centres unmarked) [Compound 164], the IC50 is over 1000 nM.

`NC(=O)CC(=O)NC1CC(Cc2c(-c3ccc(F)cc3)[nH]c3c(F)cc(F)cc23)C1` (centres unmarked) [Compound 165]: the IC50 is over 1000 nM.

`O=C(NC1CC(Cc2c(-c3ccc(F)cc3)[nH]c3c(F)cc(F)cc23)C1)c1ccn[nH]1` (centres unmarked) [Compound 166]: the IC50 was over 1000 nM.

As for `O=C1CC(C(=O)NC2CC(Cc3c(-c4ccc(F)cc4)[nH]c4c(F)cc(F)cc34)C2)C(=O)N1` (centres unmarked) [Compound 167], the IC50 is over 1000 nM.

As to `O=C(CC1NC(=O)NC1=O)NC1CC(Cc2c(-c3ccc(F)cc3)[nH]c3c(F)cc(F)cc23)C1` (centres unmarked) [Compound 168], the IC50 is over 1000 nM.

As to `Cc1cc[nH]c1C(=O)NC1CC(Cc2c(-c3ccc(F)cc3)[nH]c3c(F)cc(F)cc23)C1` (centres unmarked) [Compound 171], the IC50 was over 1000 nM.

With `Cc1ccc(C(=O)NC2CC(Cc3c(-c4ccc(F)cc4)[nH]c4c(F)cc(F)cc34)C2)[nH]1` (centres unmarked) [Compound 172], the IC50 was over 1000 nM.

Turning to `O[C@H]1C[C@@H](c2c(-c3ccc(F)cc3)[nH]c3c(F)cc(F)cc32)C1` [Compound 175, (1s,3s)-3-(5,7-difluoro-2-(4-fluorophenyl)-1H-indol-3-yl)cyclobutan-1-ol], the IC50 fell in the range of 250 to 1000 nM.

Take `NCC1CC(c2c(-c3ccc(C4CC4)cc3)[nH]c3ccc(F)cc23)C1` (centres unmarked) [Compound 177]: the IC50 was over 1000 nM.

Turning to `NCC1CC(c2c(-c3ccc(F)cc3)[nH]c3c(F)cc(C(F)(F)F)cc23)C1` (centres unmarked) [Compound 178], the IC50 fell in the range of 250 to 1000 nM.

As to `Cc1cc(-c2[nH]c3c(F)cc(F)cc3c2C2CC(CN)C2)ccc1F` (centres unmarked) [Compound 179], the IC50 is under 250 nM.

`C[C@H](N)C(=O)NC[C@H]1C[C@H](c2c(-c3ccc(F)cc3)[nH]c3c(F)cc(F)cc32)C1` [Compound 189, (S)-2-amino-N-(((1r,3S)-3-(5,7-difluoro-2-(4-fluorophenyl)-1H-indol-3-yl)cyclobutyl)methyl)propanamide]: the IC50 was under 250 nM.

In the case of `NCC(=O)NC[C@H]1C[C@@H](c2c(-c3ccc(F)cc3)[nH]c3c(F)cc(F)cc32)C1` [Compound 190], the IC50 was under 250 nM.

For the molecule `NCC(=O)NC[C@H]1C[C@H](c2c(-c3ccc(F)cc3)[nH]c3c(F)cc(F)cc32)C1` [Compound 191], the IC50 was under 250 nM.

As to `O=C(NC[C@H]1C[C@H](c2c(-c3ccc(F)cc3)[nH]c3c(F)cc(F)cc32)C1)C1CCO1` (some centres unmarked) [Compound 192], the IC50 is under 250 nM.

As to `CC(C)(C)OC(=O)N[C@@H](CO)C(=O)NC[C@H]1C[C@H](c2c(-c3ccc(F)cc3)[nH]c3c(F)cc(F)cc32)C1` [Compound 193], the IC50 was under 250 nM.

On to `N[C@@H](CO)C(=O)NC[C@H]1C[C@H](c2c(-c3ccc(F)cc3)[nH]c3c(F)cc(F)cc32)C1` [Compound 194], for which the 50% inhibitory concentration (IC50) was under 250 nM.

With `CC(=O)NC[C@H]1C[C@H](c2c(-c3ccc(F)cc3)[nH]c3c(F)cc(F)cc32)C1` [Compound 195], the IC50 is under 250 nM.

Regarding `N[C@H](C(=O)NC[C@H]1C[C@H](c2c(-c3ccc(F)cc3)[nH]c3c(F)cc(F)cc32)C1)C1CC1` [Compound 196], the concentration for half-maximal inhibition (IC50) was under 250 nM.

As for `CC[C@H](N)C(=O)NC[C@H]1C[C@H](c2c(-c3ccc(F)cc3)[nH]c3c(F)cc(F)cc32)C1` [Compound 197], the IC50 was under 250 nM.

On to `O=C(NC[C@H]1C[C@H](c2c(-c3ccc(F)cc3)[nH]c3c(F)cc(F)cc32)C1)[C@@H]1CCN1` [Compound 198], for which the IC50 is under 250 nM.

Turning to `O=C(NC[C@H]1C[C@H](c2c(-c3ccc(F)cc3)[nH]c3c(F)cc(F)cc32)C1)[C@@H]1CCCN1` [Compound 199], the half-maximal inhibitory concentration (IC50) is under 250 nM.

With `O=C(NC[C@H]1C[C@H](c2c(-c3ccc(F)cc3)[nH]c3c(F)cc(F)cc32)C1)C(F)F` [Compound 200], the IC50 was under 250 nM.

Consider `N[C@H](CO)C(=O)NC[C@H]1C[C@H](c2c(-c3ccc(F)cc3)[nH]c3c(F)cc(F)cc32)C1` [Compound 201], for which the IC50 is under 250 nM.

Turning to `O=C(NC[C@H]1C[C@H](c2c(-c3ccc(F)cc3)[nH]c3c(F)cc(F)cc32)C1)C1COC1` [Compound 202], the IC50 was under 250 nM.

As to `O=C(CO)NC[C@H]1C[C@H](c2c(-c3ccc(F)cc3)[nH]c3c(F)cc(F)cc32)C1` [Compound 203], the IC50 is under 250 nM.

`CC(=O)N[C@H](C)C(=O)NC[C@H]1C[C@H](c2c(-c3ccc(F)cc3)[nH]c3c(F)cc(F)cc32)C1` [Compound 204]: the IC50 was under 250 nM.

Take `O=C(NC[C@H]1C[C@H](c2c(-c3ccc(F)cc3)[nH]c3c(F)cc(F)cc32)C1)[C@@H]1C[C@@H](F)CN1` [Compound 205]: the IC50 is under 250 nM.

Turning to `O=C(CCO)NC[C@H]1C[C@@H](c2c(-c3ccc(F)cc3)[nH]c3c(F)cc(F)cc32)C1` [Compound 206], the IC50 was 250 to 1000 nM.

Regarding `C[C@H](O)C(=O)NC[C@H]1C[C@H](c2c(-c3ccc(F)cc3)[nH]c3c(F)cc(F)cc32)C1` [Compound 207], the IC50 is 250 to 1000 nM.

As to `CC(=O)N[C@@H](C)C(=O)NC[C@H]1C[C@H](c2c(-c3ccc(F)cc3)[nH]c3c(F)cc(F)cc32)C1` [Compound 208], the concentration for half-maximal inhibition (IC50) was 250 to 1000 nM.

Take `COCCC(=O)NC[C@H]1C[C@@H](c2c(-c3ccc(F)cc3)[nH]c3c(F)cc(F)cc32)C1` [Compound 209]: the IC50 was 250 to 1000 nM.

For `O=C(CO)NC[C@H]1C[C@@H](c2c(-c3ccc(F)cc3)[nH]c3c(F)cc(F)cc32)C1` [Compound 210], the IC50 is 250 to 1000 nM.

Consider `C[C@@H](O)C(=O)NC[C@H]1C[C@H](c2c(-c3ccc(F)cc3)[nH]c3c(F)cc(F)cc32)C1` [Compound 211], for which the IC50 fell in the range of 250 to 1000 nM.

As for `CC(C)(C)OC(=O)NCC(=O)NC[C@H]1C[C@@H](c2c(-c3ccc(F)cc3)[nH]c3c(F)cc(F)cc32)C1` [Compound 212], the IC50 lay in the range of 250 to 1000 nM.

On to `C[C@H](O)C(=O)NC[C@H]1C[C@@H](c2c(-c3ccc(F)cc3)[nH]c3c(F)cc(F)cc32)C1` [Compound 213], for which the IC50 lay in the range of 250 to 1000 nM.

For the molecule `CC(C)(C)OC(=O)NCC(=O)NC[C@H]1C[C@H](c2c(-c3ccc(F)cc3)[nH]c3c(F)cc(F)cc32)C1` [Compound 215], the IC50 fell in the range of 250 to 1000 nM.

In the case of `O=C1C[C@@H](C(=O)NC[C@H]2C[C@H](c3c(-c4ccc(F)cc4)[nH]c4c(F)cc(F)cc43)C2)N1` [Compound 218], the IC50 lay in the range of 250 to 1000 nM.

Staying with this assay, now noted: Thallium Assay (IC50), HEK 293 T-Rex inducible stable clone expressing G1 APOL1.
On to `CC(C)(C)OC(=O)N1CC[C@H]1C(=O)NC[C@H]1C[C@H](c2c(-c3ccc(F)cc3)[nH]c3c(F)cc(F)cc32)C1` [Compound 216], for which the IC50 is 250 to 1000 nM.

In turn, `CC(C)(C)OC(=O)N1CCC[C@H]1C(=O)NC[C@H]1C[C@H](c2c(-c3ccc(F)cc3)[nH]c3c(F)cc(F)cc32)C1` [Compound 217] showed an IC50 of 250 to 1000 nM.
